This assay deals with PIM1 (Homo sapiens (Human), UniProt P11309). The assay can be described thus: biochemical. The assay is classed as biochemical. To be noted: 20 pM PIM1, 1 μM FAM-peptide, 10 μM ATP, 90 minutes at room temperature; read-out: PIM1 LC3K (KI).

Each structure is given as a SMILES string.

PIM1, sequence (P11309 whole entry): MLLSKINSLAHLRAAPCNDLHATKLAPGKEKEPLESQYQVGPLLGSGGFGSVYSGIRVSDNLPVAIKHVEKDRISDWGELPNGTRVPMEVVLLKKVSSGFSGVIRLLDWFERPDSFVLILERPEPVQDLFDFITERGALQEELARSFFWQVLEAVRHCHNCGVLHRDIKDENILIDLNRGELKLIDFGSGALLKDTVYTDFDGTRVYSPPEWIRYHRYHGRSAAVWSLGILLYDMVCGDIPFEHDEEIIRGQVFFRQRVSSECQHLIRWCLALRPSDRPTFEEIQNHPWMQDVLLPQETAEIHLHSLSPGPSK

As for `Cn1ncc(NC(=O)c2csc(-c3cc(F)ccc3F)n2)c1[C@@H]1CC[C@@H](N)[C@H](F)CO1` [Example 301, N-(5-((2S,5R,6S)-5-amino-6-fluorooxepan-2-yl)-1-methyl-1H-pyrazol-4-yl)-2-(2,5-difluorophenyl)thiazole-4-carboxamide], the Ki (as a rule, the equilibrium dissociation constant of an inhibitor or competing ligand from its target) was 0.058 nM.

As for `Cn1ncc(NC(=O)c2ccc(F)c(-c3c(F)cc(Cl)cc3F)n2)c1[C@@H]1CC[C@@H](N)[C@H](F)CO1` [Example 375, N-(5-((2S,5R,6S)-5-amino-6-fluorooxepan-2-yl)-1-methyl-1H-pyrazol-4-yl)-6-(4-chloro-2,6-difluorophenyl)-5-fluoropicolinamide], the inhibitory constant (Ki) worked out at 0.036 nM.

Regarding `Cn1ncc(NC(=O)c2nc(-c3ccccc3C(F)(F)F)sc2N)c1[C@@H]1CC[C@@H](N)[C@@H](F)CO1` [Example 270, 5-amino-N-(5-((2S,5R,6R)-5-amino-6-fluorooxepan-2-yl)-1-methyl-1H-pyrazol-4-yl)-2-(2-(trifluoromethyl)phenyl)thiazole-4-carboxamide], the Ki is 0.053 nM.

`Cn1ncc(NC(=O)c2nc(-c3c(F)cccc3F)sc2N)c1C1CC[C@@H](N)[C@@H](F)CO1` (stereo partly drawn) [Example 119, 5-amino-N-(5-((5R,6R)-5-amino-6-fluorooxepan-2-yl)-1-methyl-1H-pyrazol-4-yl)-2-(2,6-difluorophenyl)thiazole-4-carboxamide]: the Ki is 0.021 nM.

Turning to `Cn1ncc(NC(=O)c2csc(-c3c(F)ccc4[nH]ccc34)n2)c1[C@@H]1CC[C@@H](N)[C@H](F)CO1` [Example 400, N-[5-[(2S,5R,6S)-5-amino-6-fluoro-oxepan-2-yl]-1-methyl-pyrazol-4-yl]-2-(5-fluoro-1H-indol-4-yl)thiazole-4-carboxamide], the Ki was found to be 0.011 nM.

As for `Cn1ncc(NC(=O)c2ccc(F)c(-c3c(F)cc(O)cc3F)n2)c1[C@@H]1CC[C@@H](N)[C@H](F)CO1` [Example 208, N-(5-((2S,5R,6S)-5-amino-6-fluorooxepan-2-yl)-1-methyl-1H-pyrazol-4-yl)-6-(2,6-difluoro-4-hydroxyphenyl)-5-fluoropicolinamide], the Ki stood at 0.012 nM.

Take `CC[C@]1(CN)CO[C@H](c2c(NC(=O)c3nc(-c4c(F)cccc4F)sc3N)cnn2C)OC1` [Example 173, 5-Amino-N-[5-[5-(aminomethyl)-5-ethyl-1,3-dioxan-2-yl]-1-methyl-pyrazol-4-yl]-2-(2,6-difluorophenyl)thiazole-4-carboxamide]: the Ki stood at 0.015 nM.

As to `Cn1ncc(NC(=O)c2nc(-c3c(F)cccc3F)sc2N)c1[C@@H]1C[C@H](O)CCO1` [Example 146, 5-amino-2-(2,6-difluorophenyl)-N-(5-((2S,4R)-4-hydroxytetrahydro-2H-pyran-2-yl)-1-methyl-1H-pyrazol-4-yl)thiazole-4-carboxamide], the Ki came to 0.095 nM.

As to `Cn1ncc(NC(=O)c2ccc(F)c(-c3c(F)cc(C4(O)CCOCC4)cc3F)n2)c1[C@@H]1CC[C@@H](N)[C@H](F)CO1` [Example 196, N-(5-((2S,5R,6S)-5-amino-6-fluorooxepan-2-yl)-1-methyl-1H-pyrazol-4-yl)-6-(2,6-difluoro-4-(4-hydroxytetrahydro-2H-pyran-4-yl)phenyl)-5-fluoropicolinamide], the Ki worked out at 0.006 nM.

Turning to `Cn1ncc(NC(=O)c2nc(-c3c(F)cccc3F)sc2N)c1[C@@H]1CC[C@@H](CN)O1` [Example 172, 5-Amino-N-[5-[(2S,5S)-5-(aminomethyl)tetrahydrofuran-2-yl]-1-methyl-pyrazol-4-yl]-2-(2,6-difluorophenyl)thiazole-4-carboxamide], the Ki is 0.15 nM.

As for `Cn1ncc(NC(=O)c2csc(-c3c(F)cc(C4(O)COC4)cc3F)n2)c1[C@@H]1CC[C@@H](N)[C@H](F)CO1` [Example 224, N-(5-((2S,5R,6S)-5-amino-6-fluorooxepan-2-yl)-1-methyl-1H-pyrazol-4-yl)-2-(2,6-difluoro-4-(3-hydroxyoxetan-3-yl)phenyl)thiazole-4-carboxamide], the Ki was found to be 0.035 nM.

On to `CC[C@]1(CO)CO[C@H](c2c(NC(=O)c3nc(-c4c(F)cccc4F)sc3N)cnn2C)OC1` [Example 162, 5-Amino-2-(2,6-difluorophenyl)-N-[5-[5-ethyl-5-(hydroxymethyl)-1,3-dioxan-2-yl]-1-methyl-pyrazol-4-yl]thiazole-4-carboxamide], for which the Ki is 0.025 nM.

`Cn1ncc(NC(=O)c2nc(-c3cccc(F)c3F)sc2N)c1[C@@H]1CC[C@@H](N)[C@@H](F)CO1` [Example 181, 5-Amino-N-[5-[(2S,5R,6R)-5-amino-6-fluoro-oxepan-2-yl]-1-methyl-pyrazol-4-yl]-2-(2,3-difluorophenyl)thiazole-4-carboxamide]: the Ki was determined as 0.004 nM.

As for `COC(c1cc(F)c(-c2nc(C(=O)Nc3cnn(C)c3[C@@H]3CC[C@@H](N)[C@H](F)CO3)cs2)c(F)c1)C1CC1` (stereo partly drawn) [Example 276, N-(5-((2S,5R,6S)-5-amino-6-fluorooxepan-2-yl)-1-methyl-1H-pyrazol-4-yl)-2-(4-(cyclopropyl(methoxy)methyl)-2,6-difluorophenyl)thiazole-4-carboxamide], the Ki was determined as 0.084 nM.

Consider `Cn1ncc(NC(=O)c2ccc(F)c(-c3c(F)cc(C4(F)CCOCC4)cc3F)n2)c1[C@@H]1CC[C@@H](N)[C@H](F)CO1` [Example 206, N-(5-((2S,5R,6S)-5-amino-6-fluorooxepan-2-yl)-1-methyl-1H-pyrazol-4-yl)-6-(2,6-difluoro-4-(4-fluorotetrahydro-2H-pyran-4-yl)phenyl)-5-fluoropicolinamide], for which the inhibition constant Ki turned out to be 0.016 nM.

In the case of `Cc1ccc(F)c(-c2nc(C(=O)Nc3cnn(C)c3[C@@H]3CC[C@@H](N)[C@@H](F)CO3)c(N)s2)c1` [Example 274, 5-amino-N-(5-((2S,5R,6R)-5-amino-6-fluorooxepan-2-yl)-1-methyl-1H-pyrazol-4-yl)-2-(2-fluoro-5-methylphenyl)thiazole-4-carboxamide], the Ki stood at 0.02 nM.

Consider `Cn1ncc(NC(=O)c2csc(-c3cnn(C)c3C(F)(F)F)n2)c1[C@@H]1CC[C@@H](N)[C@@H](F)CO1` [Example 283, N-(5-((2S,5R,6R)-5-amino-6-fluorooxepan-2-yl)-1-methyl-1H-pyrazol-4-yl)-2-(1-methyl-5-(trifluoromethyl)-1H-pyrazol-4-yl)thiazole-4-carboxamide], for which the Ki is 0.171 nM.

Regarding `COC1(c2c(NC(=O)c3nc(-c4ncccc4F)sc3N)cnn2C)CCCCO1` (centres unmarked) [Example 105, 5-amino-2-(3-fluoro-2-pyridyl)-N-[5-(2-methoxytetrahydropyran-2-yl)-1-methyl-pyrazol-4-yl]thiazole-4-carboxamide], the Ki was 0.118 nM.

As to `Cc1c(-c2nc(C(=O)Nc3cnn(C)c3[C@@H]3CC[C@@H](N)[C@@H](F)CO3)c(N)s2)cnn1C` [Example 255, 5-amino-N-(5-((2S,5R,6R)-5-amino-6-fluorooxepan-2-yl)-1-methyl-1H-pyrazol-4-yl)-2-(1,5-dimethyl-1H-pyrazol-4-yl)thiazole-4-carboxamide], the Ki worked out at 0.007 nM.

For the molecule `Cn1ncc(NC(=O)c2nc(-c3c(F)cccc3F)sc2N)c1C1CC(F)(F)CC(N)CO1` (centres unmarked) [Example 122, 5-amino-N-[5-(6-amino-4,4-difluoro-oxepan-2-yl)-1-methyl-pyrazol-4-yl]-2-(2,6-difluorophenyl)thiazole-4-carboxamide], the Ki came to 0.014 nM.

For the origin of these results see patent US9328106B2, “Cyclic ether pyrazol-4-yl-heterocyclyl-carboxamide compounds and methods of use” (Genentech, Inc., priority 2012, dated 2016).
